Measured values as given in paper PMC11314129, “Synthesis, Computational Study, and In Vitro α-Glucosidase Inhibitory Action of Thiourea Derivatives Based on 3-Aminopyridin-2(1H)-Ones” (Molecules, 2024).
Entries after “also recorded” stand apart in the source; their conditions may differ.

Key:
[1] = target: T1, α-glucosidase from Saccharomyces cerevisiae (Saccharomyces cerevisiae, UniProt P53341); assay: biochemical; assay type: biochemical; settings: for inhibition at 15000 µM: read-out: Inhibitory Activity of Test Compounds at a Concentration of 15 mM Against the α-Glucosidase Enzyme (%); for Inhibitory Activity of Test Compounds at a Concentration of 15 mM Against the α-Glucosidase Enzyme (%) / IC50 (mM): mean ± standard error of the mean; for Inhibitory Activity of Test Compounds at a Concentration of 15 mM Against the α-Glucosidase Enzyme (%): triplets; for IC50 (mM): from graph of enzyme activity vs concentration
T1 construct: purchased Sigma-Aldrich
Protocol: Antidiabetic activity was assessed by the degree of the inhibition of α-glucosidase activity by the test substances.
The study of the α-glucosidase activity inhibition degree by the test compounds was performed using a standard method with minor modifications.
Antidiabetic activity was assessed by the degree of inhibition of α-glucosidase activity by the test substances. The α-glucosidase enzyme determines the extent to which glucose enters the bloodstream from the gastrointestinal tract. […] The enzyme (α-glucosidase from Saccharomyces cerevisiae, Sigma-Aldrich, St. Louis, MO, USA, 1.0 U/mL) in phosphate-buffered saline was incubated with various concentrations of test compounds at 37 °C for 15 min. All the studied substances were dissolved in 40% DMSO. Then, 5 mM p-nitrophenyl α-d-glucopyranoside was added to the mixture as a substrate. The mixture was incubated at […] for 20 min. The absorbance was measured spectrophotometrically at 405 nm. The sample solution was replaced by 40% DMSO as a control. […] All samples were studied in triplets.
Inhibitory activity was expressed as a percentage (%) according to the degree of inhibition of α-glucosidase in comparison with the negative control. It was calculated using the following formula:
Inhibitory activity (%) = (1 − As/Ac) × 100%, where As is the optical density of the test compound, and Ac is the optical density of control.
The IC50 was determined from the graph of enzyme activity changes depending on the sample concentration.
The statistical processing of the results was carried out using the “Excel 2019” program.

glucose-6-phosphatase = test system: glucose-6-phosphatase; parameters: method as in PMID 33304132; settings: Swiss albino mice, cited from earlier work

T1 sequence (P53341 whole entry): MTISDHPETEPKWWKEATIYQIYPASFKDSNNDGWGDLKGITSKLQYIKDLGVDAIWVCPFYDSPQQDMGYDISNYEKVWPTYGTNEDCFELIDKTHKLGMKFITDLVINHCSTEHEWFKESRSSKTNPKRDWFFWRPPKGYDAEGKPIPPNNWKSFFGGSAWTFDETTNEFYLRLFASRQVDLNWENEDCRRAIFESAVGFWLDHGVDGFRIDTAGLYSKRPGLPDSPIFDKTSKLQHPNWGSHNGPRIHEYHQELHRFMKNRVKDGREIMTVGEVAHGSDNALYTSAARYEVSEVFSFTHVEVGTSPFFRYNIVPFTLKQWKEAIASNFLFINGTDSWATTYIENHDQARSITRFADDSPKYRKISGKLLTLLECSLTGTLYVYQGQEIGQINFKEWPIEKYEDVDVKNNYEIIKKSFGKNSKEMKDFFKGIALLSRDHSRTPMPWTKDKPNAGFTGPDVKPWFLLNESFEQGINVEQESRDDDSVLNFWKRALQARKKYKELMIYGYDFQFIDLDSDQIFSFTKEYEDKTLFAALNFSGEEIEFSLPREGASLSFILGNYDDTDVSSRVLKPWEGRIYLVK

Row | Compound | inhibition at 15000 µM [1] | inhibition of the enzyme glucose-6-phosphatase (glucose-6-phosphatase; streptozotocin diabetes) | safety for use in animals (glucose-6-phosphatase) | IC50 [1] | inhibitory activity against α-glucosidase (in words) [1] | Inhibitory Activity of Test Compounds at a Concentration of 15 mM Against the α-Glucosidase Enzyme (%) [1] | IC50 (mM) [1] | melting point
1 | C[C@H]1O[C@H](O[C@H]2[C@H](O)[C@@H](O)[C@@H](O[C@H]3[C@H](O)[C@@H](O)C(O)O[C@@H]3CO)O[C@@H]2CO)[C@H](O)[C@@H](O)[C@@H]1N[C@H]1C=C(CO)[C@@H](O)[C@H](O)[C@H]1O (stereo partly shown) [Acarbose, reference compound] | 46.1 ± 4.6% |  |  |  |  |  |  | 
2 | S=C(NC(c1ccccn1)C(Cc1ccccc1)Cc1ccccc1)NC(c1ccccn1)C(Cc1ccccc1)Cc1ccccc1 (stereo not shown) [Compound 4, 1,3-bis(2-benzyl-3-phenyl-1-(pyridine-2-yl)propyl)thiourea] |  | highest inhibition value | without having any toxic or lethal effects |  |  |  |  | 
3 | C=CCNC(=S)Nc1c(C)cc(C)[nH]c1=O [Compound 8a, 1-allyl-3-(4,6-dimethyl-2-oxo-1,2-dihydropyridin-3-yl)thiourea] | 23.3 ± 1.7% |  |  | 16.6 ± 1.57 mM |  |  |  | 
4 | C=CCNC(=S)Nc1c(-c2ccccc2)cc(C)[nH]c1=O [Compound 8b, 1-allyl-3-(6-methyl-2-oxo-4-phenyl-1,2-dihydropyridin-3-yl)thiourea] | 26.9 ± 2.5% |  |  | 19.8 ± 2.55 mM |  |  |  | 
5 | C=CCNC(=S)Nc1c(-c2cccs2)cc(C)[nH]c1=O [Compound 8c, 1-Allyl-3-(6-methyl-2-oxo-4-(thiophen-2-yl)-1,2-dihydropyridin-3-yl)thiourea] |  |  |  |  | did not show inhibitory activity; also recorded: showed no inhibitory activity | No activity | No activity | 289 to 292 °C
6 | Cc1cc(C)c(NC(=S)Nc2ccccc2)c(=O)[nH]1 [Compound 9a, 1-(4,6-Dimethyl-2-oxo-1,2-dihydropyridin-3-yl)-3-phenylthiourea] | 56.6 ± 2.2% |  |  | 9.77 ± 0.83 mM |  |  |  | 140 to 143 °C
7 | Cc1cc(-c2ccccc2)c(NC(=S)Nc2ccccc2)c(=O)[nH]1 [Compound 9b, 1-(6-Methyl-2-oxo-4-phenyl-1,2-dihydropyridin-3-yl)-3-phenylthiourea] | 35.2 ± 3.4% |  |  | 21.8 ± 2.65 mM |  |  |  | 141 to 144 °C
8 | Cc1cc(-c2cccs2)c(NC(=S)Nc2ccccc2)c(=O)[nH]1 [Compound 9c, 1-(6-Methyl-2-oxo-4-(thiophen-2-yl)-1,2-dihydropyridin-3-yl)-3-phenylthiourea] | 41.2 ± 2.5% |  |  |  |  |  |  | 145 to 147 °C
9 | CC(=O)NC(=S)Nc1c(C)cc(C)[nH]c1=O [Compound 10a, N-((4,6-Dimethyl-2-oxo-1,2-dihydropyridin-3-yl)carbamothioyl)acetamide] |  |  |  |  | did not show inhibitory activity; also recorded: showed no inhibitory activity | No activity | No activity | 273 to 275 °C
10 | CC(=O)NC(=S)Nc1c(-c2ccccc2)cc(C)[nH]c1=O [Compound 10b, N-((6-Methyl-2-oxo-4-phenyl-1,2-dihydropyridin-3-yl)carbamothioyl)acetamide] |  |  |  |  | did not show inhibitory activity; also recorded: showed no inhibitory activity | No activity | No activity | 249 to 251 °C
11 | CC(=O)NC(=S)Nc1c(-c2cccs2)cc(C)[nH]c1=O [Compound 10c, N-((6-Methyl-2-oxo-4-(thiophen-2-yl)-1,2-dihydropyridin-3-yl)carbamothioyl)acetamide] |  |  |  |  | did not show inhibitory activity; also recorded: showed no inhibitory activity | No activity | No activity | 252 to 254 °C
12 | Cc1cc(C)c(NC(=S)NC(=O)c2ccccc2)c(=O)[nH]1 [Compound 11a, N-((4,6-Dimethyl-2-oxo-1,2-dihydropyridin-3-yl)carbamothioyl)benzamide] |  |  |  |  | did not show inhibitory activity; also recorded: showed no inhibitory activity | No activity | No activity | 230 to 232 °C
13 | Cc1cc(-c2ccccc2)c(NC(=S)NC(=O)c2ccccc2)c(=O)[nH]1 [Compound 11b, N-[(6-Methyl-2-oxo-4-phenyl-1,2-dihydropyridin-3-yl)carbamothioyl]benzamide] |  |  |  |  | did not show inhibitory activity; also recorded: showed no inhibitory activity | No activity | No activity | 218 to 220 °C
14 | Cc1cc(-c2cccs2)c(NC(=S)NC(=O)c2ccccc2)c(=O)[nH]1 [Compound 11c, N-((6-Methyl-2-oxo-4-(thiophen-2-yl)-1,2-dihydropyridin-3-yl)carbamothioyl)benzamide] |  |  |  |  | did not show inhibitory activity; also recorded: showed no inhibitory activity | No activity | No activity | 245 to 249 °C
